Test results from PMC12040169 (PLOS Biology, 2025).

What was measured:
[1] = system: T1, C. trachomatis L2/434/Bu expressing GFP (CTL2-GFP); test: microbe, parasite or virus in culture; design: C. trachomatis total inclusion area by high-content imaging, normalised to DMSO; settings: Chlamydia trachomatis, HeLa, 28.5 h; total inclusion area; read-out: % of control remaining
T1 construct: L2/434/Bu GFP intracellular growth in HeLa cells
Excerpt: We screened a library of 36,785 small molecules displaying drug-like properties and covering a wide chemical space (Fig 1A and S2A Data). In this process, we also complemented the assay described above with an imaging-based readout (Fig 1B). After measurements of bulk GFP and resorufin fluorescence, cells were fixed, stained with the DNA dye Hoechst, and imaged at a high-content imaging platform to detect chlamydial inclusions (GFP) and host cell nuclei (Hoechst). The total area and number of inclusions in individual wells and the number of nuclei then served as additional proxies for chlamydial growth and host cell viability. […] MICs were calculated as described above.

in vitro = test: in vitro; design: Viability of infected HeLa host cells, resazurin conversion, bulk resorufin fluorescence relative to DMSO; settings: human, hela cells; bulk resorufin, mean of 2
[2] = system: T2, CTL2-GFP (C. trachomatis L2/434/Bu, GFP-expressing); test: microbe, parasite or virus in culture; design: Intracellular C. trachomatis growth in HeLa cells, bulk GFP fluorescence relative to DMSO; settings: Chlamydia trachomatis, HeLa, 28.5 h; bulk GFP, mean of 2; read-out: % of control remaining
T2 construct: L2/434/Bu, GFP-expressing
Protocol: MICs were calculated as described above.

SMILES | activity at 1 µM [1] | activity at 5 µM [1] | activity at 10 µM [1] | viability at 28.5 h, 1 µM (in vitro) | viability at 28.5 h, 5 µM (in vitro) | viability at 28.5 h, 10 µM (in vitro) | activity at 1 µM [2] | activity at 5 µM [2] | activity at 10 µM [2]
COc1cccc(CNC(C(=O)O)c2ccc3c(c2)OCO3)c1 (stereo not drawn) [CBK015420D] | 103% | 49.9% | 20.3% | 92.7% | 92.5% | 87.4% | 107% | 30.9% | 12.5%
O=C(Nc1ccc2[nH]ccc2c1)c1ccccc1Nc1cccc(C(F)(F)F)c1 [CBK149583] | 93.2% | 59.8% | 72.2% | 118% | 114% | 112% | 119% | 90% | 67.7%
Cc1nn(C)c(N2CCN(C(=O)OC(C)(C)C)CC2)c1N [CBK034182] | 122% | 92% | 53.1% | 90.6% | 94.8% | 88.5% | 120% | 91.7% | 38.1%
C[C@@H]1CN(c2ccc(C(F)(F)F)c(OCc3ccccc3)n2)CCN1 [CBK003987A] | 70.4% | 53.4% | 17.6% | 102% | 98.9% | 113% | 110% | 90.5% | 35%
CN(C(=O)Cc1ccsc1)c1nc2c(s1)CCc1c-2cnn1C [CBK281929] | 85.4% | 28.7% | 14.3% | 103% | 96% | 93.3% | 104% | 56.8% | 29.8%
O=C(NCCc1c[nH]c2ccc(Cl)cc12)c1ccc(Cl)cc1Cl [CBK159750] | 91.9% | 68.5% | 6.32% | 95.1% | 93.9% | 98.4% | 88% | 40.4% | 8.46%
Cc1ccc(Nc2ncc(C(=O)NCCCN3CCN(c4cccc(Cl)c4)CC3)c3ccccc23)cc1Cl [CBK291251] | 93.1% | 97.7% | 75.8% | 106% | 113% | 99.2% | 89.3% | 83.3% | 70.2%
COc1ccc(CCN(CCc2ccccc2)CC(O)COc2cccc3c2CCCC3)cc1 (stereo not drawn) [CBK024506T] | 99% | 114% | 55.3% | 97.4% | 95.2% | 101% | 108% | 104% | 51%
COc1ccc(Br)cc1C1CC(=O)Nc2c(-c3cccc(F)c3)csc21 (stereo not drawn) [CBK294442] | 118% | 29.4% | 66.4% | 96.8% | 96.5% | 95.7% | 132% | 65.3% | 59.3%
O=C(NCC1CC1)c1ccc(N2CCN(C(=O)c3ccccc3C(F)(F)F)CC2)nn1 [CBK153220] | 146% | 79.1% | 94.4% | 104% | 93% | 95.9% | 149% | 123% | 138%
O=C1CC[C@@H](NCc2cccs2)[C@H](c2cc(F)cc(F)c2)N1 [CBK283129] | 98.3% | 76.7% | 78.8% | 112% | 109% | 110% | 98.3% | 98.8% | 82.2%
O=C(Nc1ncc(-c2ccccc2)s1)c1cccc([N+](=O)[O-])c1 [CBK157055] | 86.4% | 88.1% | 56.9% | 114% | 102% | 114% | 110% | 86.9% | 76.9%
O=C(O)c1cn(C2CC2)c2cc(N3CCN(C(=O)Cc4ccccc4Cl)CC3)c(F)cc2c1=O [CBK297136] | 145% | 74.4% | 16.8% | 88.5% | 89.1% | 93.4% | 153% | 90.9% | 28.4%
CC(=O)N1CCc2sccc2C1c1ccccc1NCc1ccoc1 (stereo not drawn) [CBK286432] | 61.5% | 24.5% | 22.5% | 85% | 86.8% | 85.9% | 87.1% | 34% | 26.3%
CCC(=O)N1CCCc2cc(C(O)CN3CCN(c4ccc(F)cc4)CC3)ccc21 (stereo not drawn) [CBK286480] | 104% | 58.2% | 7.99% | 93% | 84% | 90.3% | 116% | 62% | 10.5%
C[C@H](NC(=O)Cc1ccc(-c2ccccc2)cc1)c1nc2ccccc2[nH]1 [CBK296998] | 110% | 35.8% | 30.7% | 89.7% | 97.4% | 100% | 153% | 142% | 185%
NC(Cc1ccccc1)CN(CC1(c2ccc(Cl)cc2)CC1)C(=O)Nc1ccc2c(c1)OCO2 (stereo not drawn) [CBK002342C] | 109% | 43.5% | 54% | 95.3% | 95.4% | 93.5% | 211% | 102% | 98.8%
COc1cc(NS(=O)(=O)c2ccc(Nc3nc(-c4sc(N)nc4C)cs3)cc2)nc(OC)n1 [CBK262796] | 110% | 55.3% | 28.8% | 93.6% | 92.2% | 88% | 106% | 58.4% | 32.6%
COc1cc(/C=N/c2cccc3c(/N=C/c4ccc(O)c(OC)c4)cccc23)ccc1O [CBK261224] | 114% | 68% | 40.8% | 89.7% | 86.7% | 81.8% | 120% | 67.3% | 44%
c1ccc(Oc2cccc(OCCCN3CCCCC3)c2)cc1 [CBK261781] | 122% | 69.2% | 23.4% | 103% | 97% | 101% | 131% | 133% | 74.4%
CCCCCC(=O)Nc1ccc(S(=O)(=O)Nc2nnc(CC)s2)cc1 [CBK045478] | 122% | 53% | 48.9% | 94.8% | 93.6% | 91.2% | 137% | 47.1% | 29.6%
CC(C)NCC(O)Cn1c2c(c3ccccc31)CCc1c-2cnn1-c1ccccc1 (stereo not drawn) [CBK261107] | 102% | 73.8% | 19.6% | 87.2% | 89.4% | 82.4% | 101% | 105% | 19.8%
COc1ccc(CC(=O)N2CCCC(c3nc(C)c4c(n3)N(CC3CC3)CCC4)C2)cc1 (stereo not drawn) [CBK286228] | 88.7% | 46.6% | 3.42% | 102% | 97.8% | 97% | 130% | 39.3% | 5.11%
Cc1cccc(OCC(C)NC(=O)NCCc2cnn(C)c2)c1 (stereo not drawn) [CBK304887] | 120% | 47.6% | 19.4% | 100% | 98.5% | 89.3% | 115% | 43.5% | 16.5%
CC(Cc1nc(-c2nccn2C(C)C)cs1)n1cc(Cl)cn1 (stereo not drawn) [CBK304251] | 109% | 55.7% | 28.6% | 90.7% | 96.5% | 92.9% | 125% | 70.4% | 46.9%
